Assay results published in patent EP0349354A1, “Peptides PF10 to PF19 from a retro virus HIV, method for the synthesis of these peptides and their use, particularly in diagnostics” (INSTITUT PASTEUR, priority 1988, dated 1990).

System: anticorps anti-nef
Experiment: ELISA for detection of anti-nef antibodies on coated peptides or nef
Type: binding, humain
Conditions: for intensité de l'immunoréactivité (OD), Serum 1: Serum 1, anti-nef positive; for intensité de l'immunoréactivité (OD), Serum 1 / intensité de l'immunoréactivité (OD), Serum 2 / intensité de l'immunoréactivité (OD), Serum 3 / intensité de l'immunoréactivité (OD), Serum 4 / intensité de l'immunoréactivité (OD), Serum 5 / intensité de l'immunoréactivité (OD), Serum 6 / intensité de l'immunoréactivité (OD), Serum 7 / intensité de l'immunoréactivité (OD), Serum 8 / intensité de l'immunoréactivité (OD), Serum 9 / intensité de l'immunoréactivité (OD), Serum 10 / intensité de l'immunoréactivité (OD), Serum 11 / intensité de l'immunoréactivité (OD), Serum 12 / intensité de l'immunoréactivité (OD), Serum 13 / intensité de l'immunoréactivité (OD), Serum 14 / intensité de l'immunoréactivité (OD), Serum 15 / intensité de l'immunoréactivité (OD), Serum 16 / intensité de l'immunoréactivité (OD), Serum 17 / intensité de l'immunoréactivité (OD), Serum 18 / intensité de l'immunoréactivité (OD), Serum 19 / intensité de l'immunoréactivité (OD), Serum 20 / intensité de l'immunoréactivité (OD), Serum 21 / intensité de l'immunoréactivité (OD), Serum 22 / intensité de l'immunoréactivité (OD), Serum 23 / intensité de l'immunoréactivité (OD), Serum 24 / intensité de l'immunoréactivité (OD), Serum 25 / intensité de l'immunoréactivité (OD), Serum 26 / intensité de l'immunoréactivité (OD), Serum 27 / intensité de l'immunoréactivité (OD), Serum 28 / intensité de l'immunoréactivité (OD), Serum 29 / intensité de l'immunoréactivité (OD), Serum 30 / intensité de l'immunoréactivité (OD), Serum 31 / intensité de l'immunoréactivité (OD), Serum 32 / intensité de l'immunoréactivité (OD), Serum 33: 500 ng coated per well; for intensité de l'immunoréactivité (OD), Serum 2: Serum 2, anti-nef positive; for intensité de l'immunoréactivité (OD), Serum 3: Serum 3, anti-nef positive; for intensité de l'immunoréactivité (OD), Serum 4: Serum 4, anti-nef positive; for intensité de l'immunoréactivité (OD), Serum 5: Serum 5, anti-nef positive; for intensité de l'immunoréactivité (OD), Serum 6: Serum 6, anti-nef positive; for intensité de l'immunoréactivité (OD), Serum 7: Serum 7, anti-nef positive; for intensité de l'immunoréactivité (OD), Serum 8: Serum 8, anti-nef positive; for intensité de l'immunoréactivité (OD), Serum 9: Serum 9, anti-nef positive; for intensité de l'immunoréactivité (OD), Serum 10: Serum 10, anti-nef positive; for intensité de l'immunoréactivité (OD), Serum 11: Serum 11, anti-nef positive; for intensité de l'immunoréactivité (OD), Serum 12: Serum 12, anti-nef positive; for intensité de l'immunoréactivité (OD), Serum 13: Serum 13, anti-nef positive; for intensité de l'immunoréactivité (OD), Serum 14: Serum 14, anti-nef positive; for intensité de l'immunoréactivité (OD), Serum 15: Serum 15, anti-nef positive; for intensité de l'immunoréactivité (OD), Serum 16: Serum 16, anti-nef positive; for intensité de l'immunoréactivité (OD), Serum 17: Serum 17, anti-nef positive; for intensité de l'immunoréactivité (OD), Serum 18: Serum 18, anti-nef positive; for intensité de l'immunoréactivité (OD), Serum 19: Serum 19, anti-nef positive; for intensité de l'immunoréactivité (OD), Serum 20: Serum 20, anti-nef positive; for intensité de l'immunoréactivité (OD), Serum 21: Serum 21, anti-nef positive; for intensité de l'immunoréactivité (OD), Serum 22: Serum 22, anti-nef positive; for intensité de l'immunoréactivité (OD), Serum 23: Serum 23, anti-nef positive; for intensité de l'immunoréactivité (OD), Serum 24: Serum 24, anti-nef positive; for intensité de l'immunoréactivité (OD), Serum 25: Serum 25, anti-nef positive; for intensité de l'immunoréactivité (OD), Serum 26: Serum 26, anti-nef positive; for intensité de l'immunoréactivité (OD), Serum 27: Serum 27, anti-nef positive; for intensité de l'immunoréactivité (OD), Serum 28: Serum 28, anti-nef positive; for intensité de l'immunoréactivité (OD), Serum 29: Serum 29, anti-nef positive; for intensité de l'immunoréactivité (OD), Serum 30: Serum 30, anti-nef positive; for intensité de l'immunoréactivité (OD), Serum 31: Serum 31, anti-nef positive; for intensité de l'immunoréactivité (OD), Serum 32: Serum 32, anti-nef negative control serum; for intensité de l'immunoréactivité (OD), Serum 33: Serum 33, anti-nef negative control serum
Procedure: Des plaques de microtitration à 96 puits ont été recouvertes une nuit avec 500 ng de protéine nef bactérienne, à 37°C ou avec 500 ng de peptides synthétiques par puits dans 50µl de PBS à pH 7,4. Après saturation avec 400 µl de PBS pH 7,4, contenant 5% de caséine, durant 1 heure à 37°C et lavage avec PBS à pH 7,4, 0,5% de BSA, 0,01% tween, 50 µl de sérums à différentes dilutions ont été ajoutés pendant 2 heures à 37°C. Après le rinçage, 50µl de complexes d'IgG de souris anti-humaine-(H + L)-peroxydase 1:1000 ont été incubés pendant 1 heure à 37°C. Après un nouveau rinçage, 100µl de OPD ont été ajoutés pendant 30mn à température ambiante dans l'obscurité. La réaction de l'enzyme a été arrêtée par addition de 50µl d'acide sulfurique 4N et la densité optique des plaques a été lue à 492 nm/620 nm. Les plaques recouvertes avec la caséine ont été utilisées comme contrôle négatif.
En vue d'étudier la possibilité d'utiliser des peptides synthétiques en tant qu'antigènes pour la détection d'anticorps anti-nef chez des patients infectés par HIV, 8 peptides synthétiques couvrant la totalité de la séquence de la protéine nef de HIV-1 (figure 4) ont été utilisés dans un test ELISA avec 31 sérums anti-nef positifs et 2 sérums anti-nef négatifs utilisés comme contrôle. Les recombinants nef ont été utilisés comme contrôle positif dans les tests ELISA et la caséine a été utilisée comme contrôle négatif. Les résultats de ces expériences sont donnés dans le tableau 4 qui illustre l'essai suivant: Essai ELISA sur 31 sérums anti-nef-positifs et 2 sérums anti-nef- négatifs, soit pré-recouverts avec des peptides synthétiques (PF 11 à PF 18), soit en utilisant nef, la caséine ou un mélange de peptides PF 12 et PF 17. Les sérums ont été sélectionnés au hasard parmi des sérums anti-nef positifs et anti-nefs négatifs testés par la méthode RIA en utilisant ¹²⁵I nef. L'intensité de l'immunoradioactivité est notée "-" pour une densité optique (OD) inférieure à 0,2; "+" pour OD = 0,2 à 0,4; "++" pour OD = 0,4 à 0,8 et "+++" pour OD = 0,8 à 2,0.

Sequence	intensité de l'immunoréactivité (OD), Serum 1	intensité de l'immunoréactivité (OD), Serum 2	intensité de l'immunoréactivité (OD), Serum 3	intensité de l'immunoréactivité (OD), Serum 4	intensité de l'immunoréactivité (OD), Serum 5	intensité de l'immunoréactivité (OD), Serum 6	intensité de l'immunoréactivité (OD), Serum 7	intensité de l'immunoréactivité (OD), Serum 8	intensité de l'immunoréactivité (OD), Serum 9	intensité de l'immunoréactivité (OD), Serum 10	intensité de l'immunoréactivité (OD), Serum 11	intensité de l'immunoréactivité (OD), Serum 12	intensité de l'immunoréactivité (OD), Serum 13	intensité de l'immunoréactivité (OD), Serum 14	intensité de l'immunoréactivité (OD), Serum 15	intensité de l'immunoréactivité (OD), Serum 16	intensité de l'immunoréactivité (OD), Serum 17	intensité de l'immunoréactivité (OD), Serum 18	intensité de l'immunoréactivité (OD), Serum 19	intensité de l'immunoréactivité (OD), Serum 20	also measured
XGGKWSKSSVVGWPTVRERMRRAEPAADGVGAASRDLEKHGAITSSNTA ATNAACAWLEAQEEEEVGZ [PF12, protéine F HIV-1, séquence 1-66]	+ (pour OD = 0,2 à 0,4)	- (pour une densité optique (OD) inférieure à 0,2)	+++ (pour OD = 0,8 à 2,0)	+ (pour OD = 0,2 à 0,4)	- (pour une densité optique (OD) inférieure à 0,2)	- (pour une densité optique (OD) inférieure à 0,2)	+++ (pour OD = 0,8 à 2,0)	+++ (pour OD = 0,8 à 2,0)	+++ (pour OD = 0,8 à 2,0)	- (pour une densité optique (OD) inférieure à 0,2)	++ (pour OD = 0,4 à 0,8)	++ (pour OD = 0,4 à 0,8)	- (pour une densité optique (OD) inférieure à 0,2)	++ (pour OD = 0,4 à 0,8)	- (pour une densité optique (OD) inférieure à 0,2)	- (pour une densité optique (OD) inférieure à 0,2)	- (pour une densité optique (OD) inférieure à 0,2)	- (pour une densité optique (OD) inférieure à 0,2)	+++ (pour OD = 0,8 à 2,0)	- (pour une densité optique (OD) inférieure à 0,2)	nombre de sérums anti-nef positifs ayant réagi (ELISA, out of 31 anti-nef positive sera): 16; intensité de l'immunoréactivité (OD), Serum 21: ++ (pour OD = 0,4 à 0,8); intensité de l'immunoréactivité (OD), Serum 22: - (pour une densité optique (OD) inférieure à 0,2); intensité de l'immunoréactivité (OD), Serum 23: - (pour une densité optique (OD) inférieure à 0,2); intensité de l'immunoréactivité (OD), Serum 24: - (pour une densité optique (OD) inférieure à 0,2); intensité de l'immunoréactivité (OD), Serum 25: +++ (pour OD = 0,8 à 2,0); intensité de l'immunoréactivité (OD), Serum 26: +++ (pour OD = 0,8 à 2,0); intensité de l'immunoréactivité (OD), Serum 27: - (pour une densité optique (OD) inférieure à 0,2); intensité de l'immunoréactivité (OD), Serum 28: + (pour OD = 0,2 à 0,4); intensité de l'immunoréactivité (OD), Serum 29: ++ (pour OD = 0,4 à 0,8); intensité de l'immunoréactivité (OD), Serum 30: - (pour une densité optique (OD) inférieure à 0,2); intensité de l'immunoréactivité (OD), Serum 31: +++ (pour OD = 0,8 à 2,0); intensité de l'immunoréactivité (OD), Serum 32: - (pour une densité optique (OD) inférieure à 0,2); intensité de l'immunoréactivité (OD), Serum 33: - (pour une densité optique (OD) inférieure à 0,2)
XGGKWSKSSVVGWPTVRERMRRAEPAADGVGAYCZ [PF11]	- (pour une densité optique (OD) inférieure à 0,2)	- (pour une densité optique (OD) inférieure à 0,2)	- (pour une densité optique (OD) inférieure à 0,2)	- (pour une densité optique (OD) inférieure à 0,2)	- (pour une densité optique (OD) inférieure à 0,2)	- (pour une densité optique (OD) inférieure à 0,2)	++ (pour OD = 0,4 à 0,8)	- (pour une densité optique (OD) inférieure à 0,2)	- (pour une densité optique (OD) inférieure à 0,2)	- (pour une densité optique (OD) inférieure à 0,2)	++ (pour OD = 0,4 à 0,8)	+ (pour OD = 0,2 à 0,4)	- (pour une densité optique (OD) inférieure à 0,2)	- (pour une densité optique (OD) inférieure à 0,2)	- (pour une densité optique (OD) inférieure à 0,2)	- (pour une densité optique (OD) inférieure à 0,2)	- (pour une densité optique (OD) inférieure à 0,2)	- (pour une densité optique (OD) inférieure à 0,2)	+++ (pour OD = 0,8 à 2,0)	- (pour une densité optique (OD) inférieure à 0,2)	intensité de l'immunoréactivité (OD), Serum 21: + (pour OD = 0,2 à 0,4); intensité de l'immunoréactivité (OD), Serum 22: - (pour une densité optique (OD) inférieure à 0,2); intensité de l'immunoréactivité (OD), Serum 23: - (pour une densité optique (OD) inférieure à 0,2); intensité de l'immunoréactivité (OD), Serum 24: - (pour une densité optique (OD) inférieure à 0,2); intensité de l'immunoréactivité (OD), Serum 25: +++ (pour OD = 0,8 à 2,0); intensité de l'immunoréactivité (OD), Serum 26: +++ (pour OD = 0,8 à 2,0); intensité de l'immunoréactivité (OD), Serum 27: - (pour une densité optique (OD) inférieure à 0,2); intensité de l'immunoréactivité (OD), Serum 28: + (pour OD = 0,2 à 0,4); intensité de l'immunoréactivité (OD), Serum 29: + (pour OD = 0,2 à 0,4); intensité de l'immunoréactivité (OD), Serum 30: - (pour une densité optique (OD) inférieure à 0,2); intensité de l'immunoréactivité (OD), Serum 31: +++ (pour OD = 0,8 à 2,0); intensité de l'immunoréactivité (OD), Serum 32: - (pour une densité optique (OD) inférieure à 0,2); intensité de l'immunoréactivité (OD), Serum 33: - (pour une densité optique (OD) inférieure à 0,2)
